These results are taken from PubChem BioAssay (NCI).

What all share (experiment): inhibition of tumour cell growth, NCI panel, 48 h
Assay [1] concerns CAKI-1 renal.
Assay [2] concerns CCRF-CEM leukemia.
Assay [3] deals with DU-145 prostate.
For assay [4], the system named is HCC-2998 colon.
Assay [5] has as its system HCT-15 colon.
For assay [6], the system named is HT29 colon.
The test system of assay [7] is IGROV1 ovarian.
The subject of assay [8] is MDA-MB-231 breast.
For assay [9], the system named is MOLT-4 leukemia.
In assay [10] the test system is OVCAR-3 ovarian.
In assay [11] the test system is OVCAR-4 ovarian.
Assay [12] deals with RPMI-8226 leukemia.
For assay [13], the system named is SF-268 CNS.
The test system of assay [14] is SK-MEL-2 melanoma.
For assay [15], the system named is U251 CNS.
In assay [16] the test system is UO-31 renal.
Assay [17] has as its system SK-MEL-5 melanoma.
The subject of assay [18] is MCF7 breast.
Assay [19] has as its system HOP-92 NSCLC.

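Five concentrations, 48 hours, 96-well plates. At the GI50, growth is halved. The concentration for full growth arrest is given as TGI.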 Where a SMILES comes first, the peptide text is derived from it. The star is where a group is joined. Boc = CC(C)(C)OC(=O)*; OBn = c1ccc(CO*)cc1 Some results are limits rather than exact numbers.

In the case of `CC(C)C(NC(=O)C(Cc1ccccc1)NC(=O)OC(C)(C)C)C(=O)NCC(=O)OCc1ccccc1` (stereo not drawn) (Boc-Phe-Val-Gly-OBn; configuration not given here), the TGI is 33.7 µM in assay [1]; 43 µM in assay [2]; 28.7 µM in [3]; 31.9 µM in [4]; 26.7 µM in [5]; 38.5 µM in [6]. The TGI in assay [7] is 27.8 µM; in [8] it was 32.3 µM; in assay [9], 39.7 µM; in assay [10], 27.9 µM; in assay [11] it was 58.8 µM; in [12] it was 42.5 µM. Further, the TGI came to 28.2 µM in assay [13], 32 µM in assay [14], 32.2 µM in [15] and 51.6 µM in assay [16].
On to `COC(=O)C(C)NP(=O)(N1CC1)N1CC1` (stereo unspecified), for which the TGI in [1], in [2], in [4], in assay [5], in assay [6] and in assay [7] was more than 100 µM throughout. Moreover, the TGI in assay [9], in assay [11], in assay [12], in assay [13], in [14] and in [17] was more than 100 µM in each case. The TGI in [15] and in [16] was more than 100 µM throughout.
For `O=[n+]1c2ccccc2n([O-])c2ccccc21`, the TGI in assay [1], in [2], in [3], in assay [5], in assay [6] and in assay [7] was more than 100 µM in each case. The TGI in assay [18] was more than 100 µM; in [8] it was more than 100 µM; in assay [9], 81.2 µM; in assay [11], more than 100 µM; in [12], more than 100 µM; in assay [13], more than 100 µM. Moreover, the TGI in assay [14], in assay [17], in [15] and in [16] was more than 100 µM throughout.
For the compound `O=c1[nH]n(Cc2ccccc2Cl)c2ccc([N+](=O)[O-])cc12`, the TGI in [1] was more than 100 µM; in assay [2] it was more than 100 µM; in [3], more than 100 µM; in [4], more than 100 µM; in assay [5], more than 100 µM; in assay [19], 52 µM. Moreover, the TGI in assay [6], in assay [7], in [8], in assay [9], in assay [10] and in assay [11] was more than 100 µM each time. The TGI in assay [12] was more than 100 µM; in [13], more than 100 µM; in assay [14] it was more than 100 µM; in assay [17], 52.8 µM; in [15], more than 100 µM; in [16], more than 100 µM.
On to `CN1C2CCC1CC(CCOC(c1ccc(F)cc1)c1ccc(F)cc1)C2` (stereo unspecified), for which the TGI in assay [1] amounted to 32.6 µM; in [2] it was 46.1 µM; in [3], 33.5 µM; in assay [5], 32.3 µM; in assay [19] it was 34.3 µM; in assay [6] it was 19.1 µM. The TGI amounted to 32.1 µM in assay [7]; 29.7 µM in assay [8]; 44 µM in [9]; 32.4 µM in assay [10]; 38.8 µM in assay [11]; 44.4 µM in [12]. The TGI stood at 29.2 µM in [13]; 31.4 µM in assay [14]; 21.3 µM in assay [17]; 28.1 µM in assay [15]; 27.9 µM in assay [16].
In the case of `COC1CC(C)C(OC)C2=CC(=O)C=C(NC(=O)/C(C)=C/C=C\C(C)C(OC(N)=O)/C(C)=C\C(C)C1OC)C2=O` (stereo unspecified), the TGI amounted to 6.6 µM in [1]; 1.05 µM in [2]; 15.9 µM in [3]; 2.11 µM in [4]; 3.31 µM in [5]; 10.9 µM in [19]. The TGI came to 17.8 µM in [7]; 1.04 µM in assay [9]; 1.48 µM in [10]; 2.48 µM in [11]; 4.39 µM in assay [12]; 6.98 µM in assay [13]. For the same compound, the TGI in [14] is 21.5 µM; in assay [17], 15 µM; in assay [15] it was 11 µM; in [16], 10.8 µM. Besides, the GI50 in [2] is 0.0706 µM.
For `O=C(Nc1ccc(Cl)cc1)C(=O)C(C(=O)c1ccccc1-c1ccccc1)C1OC(=O)c2ccccc21` (stereo unspecified), the TGI worked out at 55.7 µM in [1]; 58 µM in assay [2]; 33.8 µM in assay [4]; 37.3 µM in [5]; 65.6 µM in [19]; 58.6 µM in assay [6]. The TGI in [7] is more than 100 µM; in assay [9], more than 100 µM; in assay [11], more than 100 µM; in [12], more than 100 µM; in [13], 64.1 µM; in [14] it was 55.5 µM. Moreover, the TGI in assay [17] is 32 µM; in assay [15], 27.8 µM; in [16], 36.6 µM.
On to `CC(=O)Oc1cc2c(n(C)c1=O)-c1ccccc1C2`, for which the TGI in assay [1] was 78 µM; in assay [2], more than 100 µM; in assay [3], more than 100 µM; in assay [4], more than 100 µM; in assay [5], more than 100 µM; in [19], more than 100 µM. The TGI in assay [6], in assay [7], in assay [8], in assay [9], in [10] and in assay [11] was more than 100 µM in each case. The TGI in [12], in assay [13], in [14], in [17], in assay [15] and in [16] was more than 100 µM each time.
